Usually IC50 stands for the concentration needed to halve the response being measured.

These results are taken from patent publication US20250214942A1, “INHIBITORS OF RECEPTOR INTERACTING PROTEIN KINASE I FOR THE TREATMENT OF DISEASE” (Board of Regents, The University of Texas System, priority 2019, published 2025).

This assay concerns human monocytic cell line U937. Nature of the assay: Human U937 cellular necroptosis assay (TNFalpha + z-VAD-FMK, Cell Titer-Glo viability). The following applies: Homo sapiens, U-937, 22 h, U937 cells, 25 ng/mL human TNFalpha + 25 μM z-VAD-FMK, read-out: hU937 Avg IC50. Format: cell-based. How it is done:
The human monocytic cell line U937 (CRL-1593.2) was purchased from ATCC. The cells were routinely maintained in RPMI-1640 Medium (Gibco, Catalog #11875-093) supplemented with 10% heat inactivated fetal bovine serum (Gibco, Catalog #16140-071), 100 units/mL penicillin and 100 μg/mL streptomycin (Gibco, Catalog #15140-122), in a humidified incubator (37° C., 5% CO2). For the assay, cells were resuspended in RPMI-1640 phenol red free Media (Gibco, Catalog #11835-030) supplemented with 10% fetal bovine serum (Sigma, Catalog #F2442), 100 units/mL penicillin and 100 ug/mL streptomycin. Cells were stimulated with 25 ng/mL human TNFalpha (Cell Sciences, Catalog #CSI15659B) and 25 μM z-VAD-FMK (R&D Systems, Catalog #FMK001) followed by seeding 5000 cells per well in a volume of 40 μL to a white, CulturPlate-384 (Perkin Elmer, Catalog #6007680). Stock solutions of the test compounds were prepared in 100% DMSO (Sigma, Catalog #D2650) and serially diluted 1:3 using 100% DMSO. Compounds were additionally diluted 1:40 in assay medium, and 10 μL/well was transferred to the plate. Following the compound addition the plate was incubated at 37° C. and 5% CO2 for 22 h. After 22 h, viability was assessed with the addition of 20 μL of Cell Titer-Glo 2.0 (Promega, Catalog #G9243). The tissue culture plate was shaken on an orbital shaker at 300 RPM for 15 minutes at rt in the dark. Luminescence was measured using a PerkinElmer Envision™ plate reader. IC50 values were calculated using a four-parameter logistic curve fit using Genedata Screener software. Results are shown below in Table 3, where the average value across multiple runs is given.
Turning to `N#Cc1ccc2c(cnn2CC23CC(C(=O)N4N=CCC4c4cccc(F)c4F)(C2)C3)c1` (stereo not drawn) [Example 237, 1-((3-(5-(2,3-difluoropheny1)-4,5-dihydro-1H-pyrazole-1-carbonyl)bicyclo[1.1.1]pentan-1-yl)methyl)-1H-indazole-5-carbonitrile], the IC50 came to 7.8 nM.
With `O=C(N1N=CCC1c1cc(F)cc(F)c1)C12CC(C(F)c3cc(F)cc(Cl)c3)(C1)C2` (stereo not drawn) [Example 227, (3-((3-chloro-5-fluorophenyl-)fluoromethyl)bicyclo[1.1.1]-pentan-1-yl)(5-(3,5-difluoro-phenyl)-4,5-dihydro-1H-pyrazol-1-yl)methanone] the figure was 133 nM; with `CC1CC(c2cccc(F)c2)N(C(=O)C23CC(Cn4ncc5cc(C#N)ccc54)(C2)C3)C1` (stereo not drawn) [Example 257, 1-((3-(2-(3-fluorophenyl)-4-methylpyrrolidine-1-carbonyl)-bicyclo[1.1.1]pentan-1-yl)-methyl)-1H-indazole-5-carbonitrile], 2080 nM.
With `Cc1cc(C#N)cnc1OCC12CC(C(=O)N3N=CCC3c3cc(F)cc(F)c3)(C1)C2` (stereo not drawn) [Example 225, 6-((3-(5-(3,5-difluorophenyl)-4,5-dihydro-1H-pyrazole-1-carbonyl)bicyclo[1.1.1]pentan-1-yl)methoxy)-5-methyl-nicotinonitrile] the figure was 92 nM.
With `N#Cc1ccc2c(cnn2CC23CC(C(=O)N4N=CCC4c4ccc(F)cc4)(C2)C3)c1` (stereo not drawn) [Example 244, 1-((3-(5-(4-fluorophenyl)-4,5-dihydro-1H-pyrazole-1-carbonyl)bicyclo[1.1.1]pentan-1-yl)methyl)-1H-indazole-5-carbonitrile] the figure was 37 nM.
On to `Cc1c(F)cc([C@H]2CC=NN2C(=O)C23CC(COc4ccc(C#N)cn4)(C2)C3)cc1F` [Example 266, (R)-6-((3-(5-(3,5-difluoro-4-methylphenyl)-4,5-dihydro-1H-pyrazole-1-carbonyl)-bicyclo[1.1.1]pentan-1-yl)-methoxy)nicotinonitrile], for which the IC50 came out at 1800 nM.
With `N#Cc1ccc(OCC23CC(C(=O)N4N=CCC4c4cnccn4)(C2)C3)nc1` (stereo not drawn) [Example 280, 6-((3-(5-(pyrazin-2-yl)-4,5-dihydro-1H-pyrazole-1-carbonyl)bicyclo[1.1.1]pentan-1-yl)methoxy)nicotinonitrile] the figure was 106 nM; with `Cc1ncc(C2CC=NN2C(=O)C23CC(Cn4ncc5cc(C#N)ccc54)(C2)C3)cc1F` (stereo not drawn) [Example 246, 1-((3-(5-(5-fluoro-6-methyl-pyridin-3-yl)-4,5-dihydro-1H-pyrazole-1-carbonyl)bicyclo-[1.1.1]pentan-1-yl)methyl)-1H-indazole-5-carbonitrile], 73 nM.
With `COc1ccc2c(cnn2CC23CC(C(=O)N4N=CCC4c4cc(F)cc(F)c4)(C2)C3)n1` (stereo not drawn) [Example 215, (5-(3,5-difluorophenyl)-4,5-dihydro-1H-pyrazol-1-yl)(3-((5-methoxy-1H-pyrazolo[4,3-b]pyridin-1-yl)methyl)bicyclo-[1.1.1]pentan-1-yl)methanone] the figure was 80 nM; with `N#Cc1ccc(OCC23CC(C(=O)N4N=CCC4c4cncc(C#N)c4)(C2)C3)nc1` (stereo not drawn) [Example 286, 5-(1-(3-(((5-cyanopyridin-2-yl)oxy)methyl)bicyclo[1.1.1]-pentane-1-carbonyl)-4,5-dihydro-1H-pyrazol-5-yl)-nicotinonitrile], 218 nM.
With `N#Cc1cnc(OCC23CC(C(=O)N4N=CCC4c4cccc(Cl)c4Cl)(C2)C3)cn1` (stereo not drawn) [Example 311, 5-((3-(5-(2,3-dichlorophenyl)-4,5-dihydro-1H-pyrazole-1-carbonyl)bicyclo[1.1.1]pentan-1-yl)methoxy)pyrazine-2-carbonitrile] the figure was 40 nM; with `Cc1ccc(C2CC=NN2C(=O)C23CC(COc4cnc(C#N)cn4)(C2)C3)cc1` (stereo not drawn) [Example 198, 5-((3-(5-(p-Tolyl)-4,5-dihydro-1H-pyrazole-1-carbonyl)bicyclo[1.1.1]pentan-1-yl)methoxy)pyrazine-2-carbonitrile], 7.4 nM.
For the compound `Cc1cc2n(CC34CC(C(=O)N5N=CCC5c5cc(F)cc(F)c5)(C3)C4)ccn2n1` (stereo not drawn) [Example 216, (5-(3,5-difluorophenyl)-4,5-dihydro-1H-pyrazol-1-yl)(3-((6-methyl-1H-imidazo[1,2-b]pyrazol-1-yl)methyl)bicyclo-[1.1.1]pentan-1-yl)methanone], the IC50 turned out to be 92 nM.
In the case of `N#Cc1cc2cn(CC34CC(C(=O)N5N=CCC5c5cc(F)cc(F)c5)(C3)C4)nc2cc1Cl` (stereo not drawn) [Example 220, 6-chloro-2-((3-(5-(3,5-difluorophenyl)-4,5-dihydro-1H-pyrazole-1-carbonyl)-bicyclo[1.1.1]pentan-1-yl)-methyl)-2H-indazole-5-carbonitrile], the IC50 worked out at 312 nM.
With `COc1cc(C(F)C23CC(C(=O)N4N=CCC4c4cc(F)cc(F)c4)(C2)C3)ncn1` (stereo not drawn) [Example 229, (5-(3,5-difluorophenyl)-4,5-dihydro-1H-pyrazol-1-yl)(3-(fluoro(6-methoxypyrimidin-4-yl)methyl)bicyclo[1.1.1]-pentan-1-yl)methanone] the figure was 5060 nM; with `N#Cc1cnc(OCC23CC(C(=O)N4N=CCC4c4ccc(F)c(CO)c4)(C2)C3)cn1` (stereo not drawn) [Example 207, 5-((3-(5-(4-Fluoro-3-(hydroxymethyl)phenyl)-4,5-dihydro-1H-pyrazole-1-carbonyl)bicyclo[1.1.1]pentan-1-yl)methoxy)pyrazine-2-carbonitrile], 633 nM.
As to `Cc1c(F)cc(C2CC=NN2C(=O)C23CC(COc4ccc(C#N)cn4)(C2)C3)cc1F` (stereo not drawn) [Example 264, 6-((3-(5-(3,5-difluoro-4-methylphenyl)-4,5-dihydro-1H-pyrazole-1-carbonyl)-bicyclo[1.1.1]pentan-1-yl)-methoxy)nicotinonitrile], the IC50 was found to be 12 nM.
With `Cc1c(F)cc(C2CC=NN2C(=O)C23CC(Cn4ncc5cc(C#N)ccc54)(C2)C3)cc1F` (stereo not drawn) [Example 203, 1-((3-(5-(3,5-Difluoro-4-methylphenyl)-4,5-dihydro-1H-pyrazole-1-carbonyl)bicyclo[1.1.1]pentan-1-yl)methyl)-1H-indazole-5-carbonitrile] the figure was 5.5 nM; with `Cc1ccc(C2CC=NN2C(=O)C23CC(Cn4ncc5cc(C#N)ccc54)(C2)C3)cc1` (stereo not drawn) [Example 309, 1-((3-(5-(p-tolyl)-4,5-dihydro-1H-pyrazole-1-carbonyl)-bicyclo[1.1.1]pentan-1-yl)-methyl)-1H-indazole-5-carbonitrile], 13 nM.
With `Cc1cc(F)c(C2CC=NN2C(=O)C23CC(COc4ccc(C#N)cn4)(C2)C3)cc1F` (stereo not drawn) [Example 305, 6-((3-(5-(2,5-difluoro-4-methylphenyl)-4,5-dihydro-1H-pyrazole-1-carbonyl)-bicyclo[1.1.1]pentan-1-yl)-methoxy)nicotinonitrile] the figure was 6.5 nM; with `Cc1cc(F)c(C2CC=NN2C(=O)C23CC(COc4cnc(-c5cnn(C)c5)cn4)(C2)C3)cc1F` (stereo not drawn) [Example 345, (5-(2,5-difluoro-4-methylphenyl)-4,5-dihydro-1H-pyrazol-1-yl)(3-(((5-(1-methyl-1H-pyrazol-4-yl)pyrazin-2-yl)oxy)methyl)bicyclo[1.1.1]pentan-1-yl)methanone], 61 nM.
